Results from US8389544B2, “Isoquinolone compounds as subtype-selective agonists for melatonin receptors MT1 and MT2” (The Hong Kong University of Science and Technology, priority 2007, dated 2013).
Where two headings read alike, the source gives them in different places.

Columns and labels:
Format in all cases: cell-based
MT1 receptor = MT1 receptor (Homo sapiens, UniProt P48039); experiment: cAMP assay, MT1; parameters: expressed in transfected cells; host or cells: COS-7 (monkey kidney fibroblast); conditions: inhibition of forskolin-stimulated cAMP production; MT1-expressing cells
Sequence of MT1 receptor (P48039 whole entry): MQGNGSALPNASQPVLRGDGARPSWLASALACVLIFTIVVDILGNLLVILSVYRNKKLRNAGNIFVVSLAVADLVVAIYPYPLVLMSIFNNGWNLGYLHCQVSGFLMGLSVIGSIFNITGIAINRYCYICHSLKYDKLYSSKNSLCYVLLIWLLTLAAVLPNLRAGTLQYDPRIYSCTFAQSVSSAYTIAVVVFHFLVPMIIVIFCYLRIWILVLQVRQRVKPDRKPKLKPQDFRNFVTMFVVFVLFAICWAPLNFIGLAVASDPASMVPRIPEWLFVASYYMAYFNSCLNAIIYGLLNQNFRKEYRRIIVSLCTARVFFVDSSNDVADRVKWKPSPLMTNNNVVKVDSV

MT2 receptor [1] = target: T1, MT2 receptor (Homo sapiens, UniProt P49286); experiment: ERK phosphorylation assay, MT2; parameters: expressed in transfected cells; conditions: HEK293 cells; isoquinolone 1 μM or 2-iodomelatonin 100 nM, 5 min; against unstimulated control cells
T1 sequence (P49286 1-362): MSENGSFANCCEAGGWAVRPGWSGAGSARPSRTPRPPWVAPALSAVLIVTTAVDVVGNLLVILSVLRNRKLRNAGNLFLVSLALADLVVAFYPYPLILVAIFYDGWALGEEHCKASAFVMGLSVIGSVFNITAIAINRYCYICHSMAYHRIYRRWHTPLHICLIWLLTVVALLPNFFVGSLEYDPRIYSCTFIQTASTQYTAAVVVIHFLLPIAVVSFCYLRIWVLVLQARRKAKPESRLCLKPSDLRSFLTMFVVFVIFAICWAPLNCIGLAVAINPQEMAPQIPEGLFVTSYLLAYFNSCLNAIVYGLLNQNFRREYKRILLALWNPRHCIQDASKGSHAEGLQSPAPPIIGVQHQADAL
Text: 3. ERK Phosphorylation Assay This assay indicates the ability of the novel compounds to activate MT1 or MT2 receptors by measuring downstream events of the activated receptor, in this case ERK phosphorylation. The amount of phosphorylated ERK1/2 was detected and quantified in western blots. The data in Table 2 is expressed as the fold stimulation against the unstimulated control cells. 6. Detection of ERK phosphorylation […] Stimulation was terminated by aspiration on ice and immediate lysis by 200 μl of 1× protein gel loading buffer. Lysates were denatured by boiling for 5 min and cooled at room temperature until loading. 30 μl of each lysate was separated on 12% SDS-PAGE and transferred to nitrocellulose membrane by electroblotting. Success of transfer was visualized by Ponceau S staining. All subsequent incubations were under gentle agitation (˜100 strokes/min). […] Primary antisera against phosphorylated- or total-ERK1/2 were incubated with the blocked membrane at an appropriate dilution (1:4000-1:2000) in Blotto for overnight at 4° C. The membrane was washed with fresh Blotto for 3 times of 15 min each, then incubated with secondary antiserum (horseradish peroxidase-conjugated anti-rabbit IgG) at the dilution of 1:1000 in 1×TBS for 1 h at room temperature. The membrane was quickly rinsed with excessive 1×TBS for 3 times, and followed by 4 washes of 1×TBS for 10 min. By the end, a premix of luminol-based chemiluminescence substrate solution was prepared (1 ml for every 8 cm^2 of membrane) and overlaid onto the washed membrane to incubate for 1 min. After removing excessive solution, the membrane was covered with saran wrap and an autograph with appropriate exposure was developed on X-ray film in dark room. The image was scanned and the band intensities quantified using ImageJ 1.34. Data was expressed as the percentage response of the vehicle-treated or untreated samples. Experiments were performed at least 3 times and the average responses±SEM were presented.

MT2 receptor [2] = target: T1, MT2 receptor; experiment: FLIPR Ca2+ mobilization assay, MT2; parameters: expressed in transfected cells; host or cells: COS-7 (monkey kidney fibroblast); conditions: for % Response of 2-IMT: relative to 2-IMT response; for agonist character / receptor subtype selectivity in words: FLIPR results, MT1 versus MT2; for Emax: read-out: % Response of 2-IMT
Procedure: 1. FLIPR Ca^2+ Mobilization Assay
This assay indicates the ability of the novel compounds to activate MT1 and MT2 receptors by measuring downstream events of the activated receptor, in this case intracellular calcium mobilization.
1. Intracellular Ca^2+ Mobilization Assay Using Fluorometric Imaging Plate Reader (FLIPR®)
An intracellular calcium mobilization assay was performed to screen the isoquinolone compounds against the two melatonin receptor subtypes, MT1 and MT2 on the fluorometric imaging plate reader (FLIPR®). In order to facilitate the screening process in a high-throughput manner, chimeric G proteins with the ability to couple to a range of GPCR as well as activate intracellular Ca^2+ were employed. The melatonin receptor subtype (either MT1 or MT2) was co-expressed with the G-protein chimeras in COS-7 (monkey kidney fibroblast) cells. During the assay, cells were exposed to the novel isoquinolone compounds and the corresponding change in fluorescence was measured. Both single point and dose-dependant assays were performed for each isoquinolone compound and based on the latter a dose response curve was generated and the corresponding EC50 for each receptor subtype determined.
Specifically, COS-7 cells were seeded at a density of 20,000 cells/well into 96-well plates designed for FLIPR assays, using Opti-MEM with 10% FCS at a volume of 100 μl/well. Transfection was carried out using Lipofectamine 2000® reagent. In each well, 0.2 μg of the GPCR and G protein cDNA were diluted with 25 μl of Opti-MEM and 0.2 μl of Lipofectamine 2000® was diluted with another 25 μl of Opti-MEM. They were added to appropriate wells after the two components were mixed for 20 min.
After 48 hours of incubation post-transfection, 50 μl of the transfection medium was removed from each well followed by the labelling of transfected cells with 100 μl of 2 μM Fluo-4 in calcium containing HBSS (Hank's balanced salt solution) with 20 mM HEPES (N-[2-hydroxyethyl]piperazine—N′-[2-ethanesulfonic acid]; pH 7.5) and 2.5 mM probenecid (anion exchanger inhibitor, freshly prepared) for 1 hour at 37° C. 70 μl of 3× drugs (isoquinolinone compounds encompassing the invention) were prepared and aliquoted into the corresponding wells in the V-well drug plate. Changes in fluorescence were detected in the FLIPR 96 with an excitation wavelength of 488 nm. The background fluorescence was adjusted to the range of 8,000 to 12,000 units by altering the laser power and exposure time (typically 0.4 W and 0.4 sec, respectively) for the FLIPR setup. 50 μl of each agonist solution was added to the corresponding wells and the fluorescent emission (between 510 and 560 nm) was monitored for 3 min. Results were expressed as change in fluorescent intensity units (FIU). Concentration-response curves were generated by determining the maximal change in FIU of each data set. Numerical analysis of the statistics and EC50 (median effective concentration) values were performed on GraphPad Prism version 3.03.
Then the intracellular Ca^2+ mobilization assays using the Fluorometric Imaging Plate Reader (FLIPR®) were performed as described above.

MT2 receptor [3] = target: T1, MT2 receptor; experiment: cAMP assay, MT2; parameters: expressed in transfected cells; host or cells: COS-7 (monkey kidney fibroblast); conditions: inhibition of forskolin-stimulated cAMP production; MT2-expressing cells
[4] = Table 1, MT2 in COS-7 cells with chimeric G protein, log value, negative, NSR = no significant response
[5] = Table 2, MT2, log value, negative
[6] = Table 1, MT2 in COS-7 cells with chimeric G protein, log value, negative, NSR = no significant response, read-out: Log(EC50) ± SEM (converted)

Structure (SMILES)	cAMP Assay MT1 % Inh (MT1 receptor) [%]	ERK Phosphorylation MT2 Fold Stim. (MT2 receptor [1]) [Fold]	activity / efficacy at MT2 compared to 2-IMT (MT2 receptor [2]) [%]	% Response of 2-IMT (MT2 receptor [2]; Table 1, MT2) [%]	Log(EC50) ± SEM (MT2 receptor [2]; [4])	% Resp of 2-IMT (MT2 receptor [2]; Table 2, MT2) [%]	logEC50 ± SEM (MT2 receptor [2]; [5])	EC50 (MT2 receptor [2]; Table 2, MT2, read-out: EC50) [nM]	EC50 (MT2 receptor [2]; read-out: EC50 MT2) [nM]	cAMP Assay MT2 % Inh (MT2 receptor [3]) [%]	agonist character / receptor subtype selectivity in words (MT2 receptor [2])	EC50 (MT2 receptor [2]; [6]) [nM]	Emax (MT2 receptor [2]) [%]
COc1cc(COc2c(OC)ccc3c(=O)n(C)ccc23)cc(OC)c1 [IS528]	39.2 ± 12.0	1.71	~65	64.8	−9.43 ± 0.75	64.8	−9.43 ± 0.75	0.369	0.37	49.4 ± 13.2	–	–	–
COc1cc(COc2cc3c(=O)n(C)ccc3cc2OC)cc(OC)c1 [IS523]	18.6 ± 14.7	2.07	–	–	–	61.0	–	45.4	–	50.8 ± 9.1	very potent full agonists with high MT2 selectivity	45.7	61
COc1cc2ccn(C)c(=O)c2cc1OCc1ccc(C(C)(C)C)cc1 [IS526]	26.9 ± 24.1	–	–	88.6	−5.42 ± 0.76	88.6	−5.42 ± 0.76	3770	–	−63.9 ± 59.2	–	–	–
COc1cccc(COc2c(OC)ccc3c(=O)n(C)ccc23)c1 [IS527]	28.3 ± 16.0	2.21	~65	–	–	65.9	–	5.78	5.78	51.4 ± 12.1	–	–	65.9
COc1cccc(COc2cc3ccn(C)c(=O)c3cc2OC)c1 [IS044]	72.9 ± 7.5	3.50	–	94.9	−8.42 ± 0.25	94.9	−8.42 ± 0.25	3.8	–	62.5 ± 4.0	very potent full agonists with high MT2 selectivity	–	–
Cn1ccc2cc(OC(=O)c3ccccc3)c(OC(=O)c3ccccc3)cc2c1=O [IS039]	8.8 ± 5.8	1.98	–	61.0	−8.64 ± 0.20	61.0	−8.64 ± 0.20	2.31	–	4.2 ± 6.8	–	–	–
COc1cccc(COc2cc3c(=O)n(C)ccc3cc2OC)c1 [IS521]	19.4 ± 17.4	3.01	–	–	–	98.9	–	11.4	–	63.2 ± 4.9	very potent full agonists with high MT2 selectivity	11.5	98.9
COc1ccc2c(=O)n(C)ccc2c1OCc1ccc(C)cc1 [IS529]	34.0 ± 17.4	1.23	–	–	–	53.6	–	65.2	–	37.7 ± 11.9	activated MT2 only	64.6	53.6
COc1cc(COc2cc3ccn(C)c(=O)c3cc2OC)cc(OC)c1 [IS042]	81.8 ± 6.2	5.59	–	–	–	84.5	–	0.379	–	58.7 ± 5.8	very potent full agonists with high MT2 selectivity	0.38	84.5
